This note sets out measurements from paper PMC12713023, “CDH1 Orchestrates Anabolic Events to Promote Cell Cycle Initiation” (Advanced Science, 2025).

As a reminder, the Kd is a measure of binding affinity in units of concentration. Low readings indicate a tighter complex, high ones a looser complex.

Test [1] concerns the target T1, TKTL1 (transketolase-like-1) (Homo sapiens, UniProt P51854).
T1 construct: CDS in pET-22b(+), His-tagged, E. coli BL21(DE3), Ni-NTA; tag kept (captured on anti-His biosensors)
T1 sequence (P51854 1-596): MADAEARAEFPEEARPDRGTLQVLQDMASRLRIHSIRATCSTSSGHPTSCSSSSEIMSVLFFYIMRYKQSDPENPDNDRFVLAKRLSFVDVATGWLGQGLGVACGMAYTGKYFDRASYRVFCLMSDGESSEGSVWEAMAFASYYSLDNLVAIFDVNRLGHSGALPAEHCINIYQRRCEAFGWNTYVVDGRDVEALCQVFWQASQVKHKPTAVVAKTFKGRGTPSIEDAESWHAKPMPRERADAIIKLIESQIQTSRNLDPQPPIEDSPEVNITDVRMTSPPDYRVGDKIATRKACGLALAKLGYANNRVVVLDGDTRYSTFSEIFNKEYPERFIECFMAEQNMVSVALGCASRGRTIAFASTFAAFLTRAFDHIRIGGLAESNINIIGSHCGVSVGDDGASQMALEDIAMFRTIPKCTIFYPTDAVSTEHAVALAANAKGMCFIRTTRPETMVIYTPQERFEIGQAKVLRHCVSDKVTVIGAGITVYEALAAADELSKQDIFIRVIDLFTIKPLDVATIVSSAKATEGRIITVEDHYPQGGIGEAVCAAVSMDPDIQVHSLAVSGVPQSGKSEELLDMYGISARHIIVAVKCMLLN
The experiment in a line: biolayer interferometry, His-tagged protein on anti-His biosensors, […] fit. The note with it: PBST, 30 °C, 0.82-200 µM ligand; KD = kd/ka. The class given is binding. On the technique in general: BLI is a label-free optical method that tracks binding on a fibre tip over time.

The next test deals with T2, CPT2 (Homo sapiens, UniProt P23786).
T2 sequence (P23786 26-658): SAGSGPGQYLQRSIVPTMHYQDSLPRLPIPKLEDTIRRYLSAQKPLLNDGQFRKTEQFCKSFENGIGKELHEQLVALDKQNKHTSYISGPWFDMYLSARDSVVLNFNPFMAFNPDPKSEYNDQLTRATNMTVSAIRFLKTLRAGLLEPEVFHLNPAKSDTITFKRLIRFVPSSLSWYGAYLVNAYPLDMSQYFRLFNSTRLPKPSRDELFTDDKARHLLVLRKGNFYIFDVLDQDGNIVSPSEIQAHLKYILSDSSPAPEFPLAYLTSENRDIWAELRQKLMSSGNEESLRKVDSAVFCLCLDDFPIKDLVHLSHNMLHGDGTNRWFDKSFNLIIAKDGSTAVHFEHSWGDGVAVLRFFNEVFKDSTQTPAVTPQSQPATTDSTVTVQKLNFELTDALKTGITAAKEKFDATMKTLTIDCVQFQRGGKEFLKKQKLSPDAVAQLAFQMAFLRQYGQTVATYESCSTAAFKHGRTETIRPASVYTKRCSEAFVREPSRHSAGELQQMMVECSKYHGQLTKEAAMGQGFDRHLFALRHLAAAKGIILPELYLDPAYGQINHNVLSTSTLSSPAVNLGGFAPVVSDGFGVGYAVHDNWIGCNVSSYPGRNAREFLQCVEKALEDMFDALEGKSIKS
The experiment in a line: CoA consumption, DTNB at […] nm. The class given is biochemical. To be noted: 2 mM CoA, 2 mM palmitoyl-L-carnitine, pH 7.5, 37 °C.

Take `O=S(=O)(O)OC[C@H]1OC(O)[C@H](O)[C@@H]1O` (some centres unmarked) [R5S]: the Kd in test [1] was found to be 8.58 µM. As for `CC(C)(COP(=O)(O)OP(=O)(O)OC[C@H]1O[C@@H](n2cnc3c(N)ncnc32)[C@H](O)[C@@H]1OP(=O)(O)O)[C@@H](O)C(=O)NCCC(=O)NCCS` [CoA], at CPT2, the relative specific activity result is “CPT2 activity was assayed by measuring the decrease in CoA levels”.
